Consider two compounds from patent US8293796B2, “Modulator” (University College London, priority 2004, dated 2012).

For one data set, the system named is wildtype mice. Nature of the data set: hypothermia and hypomotility (temperature and 5 minute motility in openfield activity chamber) in wildtype mice. The class given is in vivo, mouse. As to the method: Many CB1 agonists are known to induce psychotrophic associated “tetrad effects” due to central binding to CB receptors [Howlett, A. C. et al, International Union of Pharmacology. XXVII, Pharmacol. Rev. 2002, 54, 161-202]. Studies were undertaken to investigate whether the compounds of the present invention also bound to central CB1 receptors. This is assessed by measuring the ability of the compounds to induce sedation, ptosis, hypomotility, catalepsy and hypothermia in normal mice [Brooks, J. W. et al, Eur. J. Pharmacol. 2002, 439, 83-92], following i.v., i.p. and oral administration.
A CNS excluded compound provides a tool for examining if a component of a cannabinoid anti-spastic effect is mediated via peripheral CB receptors. […] As stated above there is no established role for peripheral cannabinoid receptors in the control of spasticity, however, spasticity is likely to be a product of nerve damage in the spinal cord, at least in EAE, [Baker, D. et al, FASEB J. 2001, 15, 300-302; Baker, D. et al, J. Neuroimmunol. 1990, 28, 261-270] and aberrant signals to and from the musculature are likely, at least in part to contribute to the muscle spasms occurring in spasticity.

The next data set concerns the target T1, CB1 receptor (Mus musculus, UniProt P47746).
T1 construct: from tissue; host or cells: mouse vas deferens (isolated tissue preparation)
Nature of the data set: vas deferens inhibition of contractions (cannabinoid receptor modulating activity).

The next data set concerns CREAE mice. Nature of the data set: assessment of spasticity in CREAE mice (resistance to full flexion of hindlimbs against a strain gauge). The class given is in vivo, mouse. As to the method:
Spasticity developed following the development of chronic EAE induced by injection of mouse spinal cord homogenate in Freund's complete adjuvant on day 0 & 7. This occurred 60-80 days post-induction in wildtype ABH.Cnr1+/+ mice and 30-40 days post-induction in CB1 receptor gene (Cnr1)-deficient ABH.Cnr1−/− mice). Spasticity was assessed by resistance to full flexion of hindlimbs against a strain gauge [Baker et al 2000], before and after treatment with either the full CB1/CB2 agonist CP55,940 or full CB1/CB2/“CB3” agonist injected intraperitoneally or compound (16) injected intravenously in vehicle (alcohol:cremophor:PBS (1:1:18)). […] Statistical analysis was performed on raw data and were analysed pairwise from baseline levels (*** P<0.001).
Further studies were undertaken using cannabinoid knockout mice, including CB1, CB2, VR-1, FAAH and conditional CB1 knockout mice. […] Spasticity is assessed (n=6-7/group) by resistance to hindlimb flexion using a strain gauge [Baker, D. et al, Nature 2000, 404, 84-87]. Animals serve as their own controls and will be analysed in a pairwise fashion. […] Low doses of CB1 agonists and CNS active CP55,940, as control, are locally (subcutaneous, intra-muscularly) administered into spastic ABH mice and the lack of activity in a contralateral limb analysed [Fox, A. et al, Pain 2001, 92, 91-100]. […]

SMILES strings stand for the structures. pIC50: −log10 of the molar value. “Also recorded” adds a separate entry of the source. Like-named read-outs stand apart in the source and are kept apart here.

T1 sequence (P47746 whole entry): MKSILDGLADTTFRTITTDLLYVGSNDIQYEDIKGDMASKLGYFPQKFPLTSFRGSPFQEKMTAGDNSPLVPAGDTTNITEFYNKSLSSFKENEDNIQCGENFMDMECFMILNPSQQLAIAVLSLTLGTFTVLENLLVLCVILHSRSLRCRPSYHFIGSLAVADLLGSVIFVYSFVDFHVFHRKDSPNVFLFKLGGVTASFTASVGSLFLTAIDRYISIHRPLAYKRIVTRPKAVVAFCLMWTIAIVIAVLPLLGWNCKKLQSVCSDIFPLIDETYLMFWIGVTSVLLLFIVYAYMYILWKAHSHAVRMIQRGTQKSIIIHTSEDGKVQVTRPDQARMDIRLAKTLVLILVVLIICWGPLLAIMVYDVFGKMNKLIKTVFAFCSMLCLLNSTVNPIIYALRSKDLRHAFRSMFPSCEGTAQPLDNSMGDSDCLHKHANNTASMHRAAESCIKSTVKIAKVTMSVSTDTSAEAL

For `Cc1c(C(=O)c2cccc3ccccc23)c2cccc3c2n1[C@H](CN1CCOCC1)CO3` [R(+)WIN55,212, reference compound], in the data set with wildtype mice (wildtype mice, 20 min after injection, dose not given), the “CNS effects: temperature and motility” value is “induced typical cannabinmimetic effects”.

On to `CC(CO)NC(=O)c1cccc(/C=C\CCCC(=O)N(C)C)c1` (racemic) [Compound 16, 3-(5-Dimethylcarbamoyl-pent-1-enyl)-N-(2-hydroxy-1-methyl-ethyl)benzamide], for which, on CB1 receptor (in presence of SR141716A), the “effect of CB1 antagonist SR141716A on the compound's effect in vas deferens” value is given as “neutralised by the CB1-antagonist SR141716A; also recorded: inhibited by the selective CB1 antagonist SR141716A”. Besides, the pIC50 on CB1 receptor (mouse vas deferens preparation, FIG. 1, read-out: IC50, vas deferens preparation) is about 9.00; at CB1 receptor (rat vas deferens, FIG. 1 legend, read-out: IC50, inhibition of contractions), about 10.00. In addition, the “CNS effects: hypothermia and hypomotility” value with wildtype mice (wildtype mice, 20 mg/kg i.v.) is “inactive”; with wildtype mice (wildtype/normal mice, 1 mg/kg, 20 min after injection, 1 mg/kg) it was “inactive; also recorded: no hypothermia or hypomotility was observed”. For the same compound, the anti-spastic activity entry was “active” in the data set on CREAE mice (administered in PBS alone (not shown)) and “significant anti-spastic activity; also recorded: marked effect on spasticity; also recorded: selective inhibition of spasticity without producing CNS effects” in the data set with CREAE mice (wildtype ABH mice with CREAE, injected intravenously in alcohol:cremophor:PBS (1:1:18), 10 minutes after administration).
